Patent US20260242359A1, “IRHOM2 INHIBITORS AND USES THEREOF” (NEW YORK SOCIETY FOR THE RELIEF OF THE RUPTURED AND …, priority 2023, published 2026)

System: LPS-induced release of endogenous TNFα from human peripheral blood mononuclear cells (PBMCs)
Experiment: Example 13: ELISA-based TNFα release assay, LPS-induced, PBMCs from healthy donor
Assay type: cell-based
Conditions: 10 μM final concentration, LPS 50 ng/ml, delta Buffer stimulated vs unstimulated = 100% inhibition; for inhibition at 10 µM: Homo sapiens, PBMC
Procedure: In the following study, ELISA-based TNFα release assay was performed to verify the inhibitory effects of Compounds 1, 2, 3, 4, 5, and 7 on LPS-induced release of endogenous TNFα from primary human material obtained from healthy donor using peripheral blood mononuclear cells (PBMCs). The ELISA-based TNFα release assay that was used in this example is described below.
In brief, on day 1, Nunc black MaxiSorp® 96-well plates (Thermo Fisher Scientific, USA) were coated overnight with 100 μl per well of mouse anti-human TNFα capture antibody (provided as part of the DuoSet ELISA kit) at 4 μg/ml TBS at 4° C. On day 2, the capture antibody solution was removed and MaxiSorp® plates were blocked with 300 μl per well of TBS, 1% BSA at room temperature for 3 hours. Meanwhile, 20,000 PBMCs from healthy donor (SciRhom GmbH, Germany) in 80 μl of normal growth medium were seeded in each well of Greiner CELLSTAR V-bottom 96-well plates (Thermo Fisher Scientific, USA) and pre-incubated with 20 μl per well of standard growth medium supplemented with Batimastat (BB94, Abcam, UK) at 50 μM as positive control (for a final concentration of 10 μM in the resulting 100 μl sample volume), compounds of the invention at 50 μM (for a final concentration of 10 μM in the resulting 100 μl sample volume) and in case of Buffer stimulated and unstimulated controls with DMSO (Carl Roth, Germany) at 50 μM (for a final concentration of 10 μM in the resulting 100 μl sample volume) at 37° C., 5% CO2 for 30 minutes. Subsequently, cells (except those for unstimulated controls) were stimulated with 20 μl per well of LPS (Sigma-Aldrich, USA) at 300 ng/ml growth medium for a final concentration of 50 ng/ml at 37° C., 5% CO2 for 2 hours. Afterwards, the 96-well plates were centrifuged to pellet cells. In parallel, blocking buffer was removed from the MaxiSorp® plates and plates were washed 4 times with 350 μl per well of TBS-T (Carl Roth, Germany) on a 96-head plate washer (Tecan Group, Switzerland). To avoid drying-up, 30 μl of TBS were added to each well of the MaxiSorp® plates immediately, followed by the transfer of 70 μl of cell-free supernatant per sample. Additionally, 100 μl of recombinant human TNFα protein (provided as part of the DuoSet ELISA kit) diluted in TBS at defined concentrations were added to the plate as standard references. Thereafter, 100 μl per well of biotinylated goat anti-human TNFα detection antibody (provided as part of the DuoSet ELISA kit) at 50 ng/ml TBS were added and, protected from direct light, plates were incubated at room temperature for 2 hours. After 4 times washing with 350 μl per well of TBS-T (Carl Roth, Germany) on a 96-head plate washer (Tecan Group, Switzerland) and careful removal of all buffer traces after the fourth cycle, 100 μl of streptavidin-AP (R&D Systems, USA) diluted 1:10,000 in TBS were added to each well and, again protected from direct light, plates were incubated at room temperature for 30 minutes. Following another round of 4 times washing with 350 μl per well of TBS-T (Carl Roth, Germany) on a 96-head plate washer (Tecan Group, Switzerland) and careful removal of all buffer traces after the fourth cycle, 100 μl of AttoPhos substrate solution (Promega, USA) was added for incubation in the dark at room temperature for 1 hour. Using an infinite M1000 PRO (Tecan Group, Switzerland) microplate reader, the fluorescence of each well was collected at an excitation wavelength of 435 nm and an emission wavelength of 555 nm.
The delta between Buffer stimulated and Buffer unstimulated was defined 100% inhibition.

Compound | inhibition of LPS-induced release of TNFα from human PBMCs (2 hours) [%] | inhibition at 10 µM (2 h) [%] | inhibition at 10 µM (2 hours) [%]
CNC(=O)[C@H](Cc1ccccc1)NC(=O)[C@H](CC(C)C)[C@H](CSc1cccs1)C(=O)NO [Batimastat, reference compound] | 114.9 | 99.5 | 
CCC(=O)NCCc1c(/C=C2/C(=O)NC(=O)N(c3ccc(C)cc3C)C2=O)[nH]c2ccccc12 [Compound 1] |  |  | 99.5
CCOC(=O)c1ccc(Nc2nc3nonc3n3nnnc23)cc1 [Compound 2] |  | 98.6 | 
O=C(c1c(Cl)cccc1Cl)N1CCC(Cc2ccc(F)cc2)CC1 [Compound 3] |  | 76.3 | 
Cc1c(C(=O)NCc2cccs2)sc(=O)n1Cc1ccccc1 [Compound 4] |  | 42 | 
Cc1c(C(=O)NCc2cccs2)sc(=O)n1Cc1ccccc1F [Compound 5] |  | 51.3 | 
Cc1c(C(=O)NCc2ccco2)sc(=O)n1Cc1ccccc1F [Compound 7] |  | 72.5 | 
